Data from patent publication US8318928B2, “Fused imidazole carboxamides as TRPV3 modulators” (Glenmark Pharmaceuticals, S.A., priority 2008, dated 2012).

Target: T1, Human TRPV3 expressing CHO cells (Homo sapiens, UniProt Q8NET8)
T1 construct: expressed in transfected cells; host or cells: CHO cells, kept under G-418 selection
T1 sequence (Q8NET8 1-790): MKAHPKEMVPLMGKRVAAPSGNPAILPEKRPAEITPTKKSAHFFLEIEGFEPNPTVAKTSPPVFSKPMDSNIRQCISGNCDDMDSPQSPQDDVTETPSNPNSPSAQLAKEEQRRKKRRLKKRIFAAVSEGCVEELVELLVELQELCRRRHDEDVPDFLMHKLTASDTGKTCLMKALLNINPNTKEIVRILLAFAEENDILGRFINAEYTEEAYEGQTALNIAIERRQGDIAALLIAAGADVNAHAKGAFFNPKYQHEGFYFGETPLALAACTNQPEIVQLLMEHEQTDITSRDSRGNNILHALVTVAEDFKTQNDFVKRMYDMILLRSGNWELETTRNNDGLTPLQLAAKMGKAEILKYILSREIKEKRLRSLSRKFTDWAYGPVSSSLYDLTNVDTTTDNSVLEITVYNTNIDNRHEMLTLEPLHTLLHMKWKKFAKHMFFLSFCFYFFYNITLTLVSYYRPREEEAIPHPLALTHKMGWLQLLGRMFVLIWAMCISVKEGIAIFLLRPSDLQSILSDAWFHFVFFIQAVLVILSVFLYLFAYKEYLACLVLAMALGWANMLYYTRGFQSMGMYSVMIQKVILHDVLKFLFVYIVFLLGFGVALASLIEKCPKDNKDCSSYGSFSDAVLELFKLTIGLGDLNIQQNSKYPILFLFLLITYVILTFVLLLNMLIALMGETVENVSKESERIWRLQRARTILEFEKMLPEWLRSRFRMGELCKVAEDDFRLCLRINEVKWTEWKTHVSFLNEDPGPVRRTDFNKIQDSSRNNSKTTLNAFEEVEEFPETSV
Test: 45Calcium uptake assay: inhibition of 2-APB induced cellular uptake of radioactive calcium
Format: cell-based
Conditions: 2-APB 500 μM
Source text: Certain illustrative compounds within the scope of the present invention are screened for TRPV3 activity according to a modified procedure described in (a) Tóth, A. et al. Life Sciences 2003, 73, 487-498. (b) McNamara C, R. et al. Proc. Natl. Acad. Sci. U.S.A., 2007, 104, 13525-13530. The screening of the compounds may be carried out by other methods and procedures known to persons skilled in the art.
Screening for TRPV3 Antagonist Using the ^45Calcium Uptake Assay
The inhibition of TRPV3 receptor activation was followed as inhibition of 2-aminoethxydiphenylborate (2-APB) induced cellular uptake of radioactive calcium. Test compounds were dissolved in dimethyl sulfoxide (DMSO) to prepare 20 mM stock solution and then diluted using plain medium with DMEM/F-12 containing 1.8 mM CaCl2 to get desired concentration. Final concentration of DMSO in the reaction was 0.5% (v/v). Human TRPV3 expressing CHO cells were grown in DMEM/F-12 medium with 10% FBS, 1% penicillin-streptomycin solution, 400 μg/mL of G-418. Cells were seeded 24 h prior to the assay in 96 well plates so as to get ˜50,000 cells per well on the day of experiment. Cells were treated with test compounds for 10 minutes followed by addition of 2-APB at a final concentration of 500 μM and 5 μCi/mL ^45Ca^+2 for 4 minutes. Cells were washed and lysed using buffer containing 1% Triton X-100, 0.1% deoxycholate and 0.1% SDS. Radioactivity in the lysate was measured in Packardt Top count after addition of liquid scintillant. Concentration response curves were plotted as a % of maximal response obtained in the absence of test antagonist. IC50 value was calculated from concentration response curve by nonlinear regression analysis using GraphPad PRISM software.
Percentage inhibition at concentrations of 1.0 μM and 10.0 μM are given in the table along with IC50 (nM) details for selected examples.

CC(C)(C)COc1c(/C=C/c2nc3sccn3c2C(=O)NCC(F)(F)F)cccc1OC(F)F [Example 31, 6-{(E)-2-[3-(Difluoromethoxy)-2-(2,2-dimethylpropoxy)phenyl]vinyl}-N-(2,2,2-trifluoroethyl)imidazo[2,1-b][1,3]thiazole-5-carboxamide]
inhibition at 1 µM (compound at 1.0 μM, read-out: Percentage inhibition at 1.0 μM): 60.9%
inhibition at 10 µM (compound at 10.0 μM, read-out: Percentage inhibition at 10.0 μM): 97.7%
